Experimental data: patent US6124453A, “Macrolides” (Novartis AG, priority 1995, dated 2000)
pIC50: −log10 of the molar value.

Tests used:
[1] = Cytotoxic and cytostatic activity in vitro using the THP1 cell line (MTT); format: cell-based; conditions: human, thp1 cells; after 24 h incubation, IFNγ 100 U/ml and LPS 5 μg/ml; read-out: IC50, cytotoxicity THP1 (MTT)
Procedure: 3. Cytotoxic and Cytostatic Activity in Vitro Using the THP1 Cell Line
Cytotoxicity is determined using the human monocytic cell line THP1 (5×10^4 cells/well) which are incubated in the presence of IFNγ (100 U/ml)and LPS (5 μg/ml) plus test compound (up to 10 μM) for 24 to 72 h at 37° C. Living cells are quantified using the colourimetric read-out MTT which measures mitochondrial dehydrogenase enzymatic activity in living cells (Mossman 1983). Macrolides of the invention, e.g. compounds of formula IX and their pharmaceutically acceptable salts, e.g. Sanglifehrins A, B, C and D, have IC50 s of about 1000-5000 nM after 24 h incubation in this assay.

FK binding protein = FK binding protein (Homo sapiens, UniProt P62942); test: FK binding protein binding (standard test); conditions: standard tests
Sequence of FK binding protein (P62942 whole entry): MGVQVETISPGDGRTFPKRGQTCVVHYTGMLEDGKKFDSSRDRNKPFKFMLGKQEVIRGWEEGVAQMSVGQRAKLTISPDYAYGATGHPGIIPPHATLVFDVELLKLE

heart allograft [2] = test: Rat heart allotransplantation (DA to Lewis); format: in vivo; conditions: in combination with suboptimal doses of cyclosporin A
Procedure: (§1) 8. Rat/Mouse Heart Allotransplantation
(§2) The in vivo efficacy of macrolides of the invention is assessed in rat and mouse heart allotransplantation using Alzet osmotic minipumps for s.c. administration.

[3] = test system: spleen cells from Balb/c mice co-incubated with spleen cells from CBA mice; test: Two-way MLR (murine mixed lymphocyte reaction); format: cell-based; conditions: Mus musculus, 96 h, 4 days co-incubation, labelled precursor incorporation into DNA, read-out: IC50, proliferative response in two-way MLR
Procedure: 1. Proliferative Response Of Lymphocvtes to Allogenic Stimulation
Two-way MLR (Murine Mixed Lymphocyte Reaction)
Spleen cells (2×10^5) from Balb/c mice (female, 8-10 weeks) are co-incubated for 4 days with 2×10^5 spleen cells from CBA mice (female, 8-10 weeks). The allogenic cells induce a proliferative response in the responder spleen cell population which is measured by labelled precursor incorporation into the DNA.

[4] = test system: Tumour Necrosis Factor (TNF) α release by peripheral blood mononuclear cells; test: TNF release by human peripheral blood mononuclear cells; format: cell-based; conditions: PBMC, IFNγ 100 U/ml and LPS 5 μg/ml, 3 h incubation, ELISA
Procedure: 4. TNF Release by Human Peripheral Blood Mononuclear Cells
Mononuclear cells are prepared from the peripheral blood of healthy volunteers using Ficoll-Hypaque density separation according to the method of Hansell et al. (1991). Cells (10^5 cells/well in 200 μl RPMI 10% FCS by volume) are incubated with serial dilutions of the test compounds for 30 min at 37° C. prior to the addition of stimulus. Interferon γ (100 U/ml) and LPS (5 μg/ml) are used as stimuli to induce Tumour Necrosis Factor (TNF) α release by peripheral blood mononuclear cells. After 3 h incubation, the cells are centrifuged (1200 rpm for 10 min) and the supernatants are collected. The amount of TNF present in the cell supernatants is determined using a commercially available enzyme-linked immunosorbent assay kit.

heart allograft [5] = test: Mouse heart allotransplantation (BALB/c to C3H); format: in vivo; conditions: doses of the order of 30 mg/kg/day, s.c. Alzet osmotic minipumps
Procedure: as §1, §2

[6] = test system: LPS-stimulated Murine B-cells; test: LPS-stimulated murine B-cell proliferation; format: cell-based, CBA mice; conditions: Mus musculus, 48 hours with 50 μg/ml LPS, labelled precursor incorporation into DNA, read-out: IC50, inhibition of B-cell proliferation
Procedure: LPS-stimulated Murine B-cells
Spleen cells (2×10^5) from CBA mice are incubated for 48 hours with 50 μg/ml LPS plus test compound. Proliferation is measured by labelled precursor incorporation into DNA.

DTH footpad swelling = test: DTH induced by SRBC-TH cells; format: in vivo, C57 BL/6 mice; conditions: doses of the order of 5 mg/kg s.c., footpad thickness after 24 hours
Procedure: 7. DTH Induced by SRBC-TH Cells
50 μl of the SRBC cell suspension (diluted 1:1 v/v with PBS) is injected s.c. into the left hind footpad (to measure non specific increase in footpad swelling due to the injection procedure). Right and left hind footpad thickness is measured 24 hours later.
The percent increase in thickness of the right footpad over the left footpad (z) is calculated. Thickness of right footpad=x. thickness of left footpad=y; % specific increase=z

calcineurin = test: Calcineurin activity (standard test); format: biochemical; conditions: standard tests
[7] = target: human recombinant cyclophilin A (Homo sapiens, UniProt P62937); test: Cyclophilin binding assay (competitive ELISA / competitive binding test); conditions: competition with coated BSA-cyclosporin A
Sequence of human recombinant cyclophilin A (P62937 whole entry): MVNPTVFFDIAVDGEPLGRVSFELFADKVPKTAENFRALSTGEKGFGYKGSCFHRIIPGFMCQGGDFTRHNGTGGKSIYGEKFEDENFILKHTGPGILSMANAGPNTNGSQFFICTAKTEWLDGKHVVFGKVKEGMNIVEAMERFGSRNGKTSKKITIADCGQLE
From the text: 5. Cyclophilin Binding Assay
A suitable cyclophilin binding assay is the competitive ELISA test described by Quesniaux in Eur. J. Immunol. 1987 17 1359-1365.

[8] = test system: Localised Graft-versus-Host (GvH) reaction; test: Localised graft-versus-host (GvH) reaction in the rat; format: in vivo; conditions: dose of about 1 mg/kg s.c., 4 consecutive days, lymph node weight on day 7
Procedure: 6. Localised Graft-versus-Host (GvH) Reaction in the Rat
Spleen cells (1×10^7) from 6 week old female Wistar/Furth (WF) rats are injected subcutaneously on day 0 into the left hind-paw of female (F344×WF)F1 rats weighing about 100 g. Animals are treated for 4 consecutive days and the popliteal lymph nodes are removed and weighed on day 7. The difference in weight between the two lymph nodes is taken as the parameter for evaluating the reaction.

Structure (SMILES)	CC50 at 24 h [1] [nM]	FK binding protein binding activity (FK binding protein)	graft survival (in words), rat heart allotransplantation (heart allograft [2])	pIC50 [3]	pIC50 [4]	graft survival (in words), mouse heart allotransplantation (heart allograft [5])	pIC50 [6]	reduction of swelling of the DTH mouse (DTH footpad swelling)	inhibition of calcineurin activity (calcineurin)	pIC50 [7]	inhibition of the GvH reaction [8]
CC[C@H]1C[C@H](C)[C@@]2(NC1=O)O[C@@H](C[C@H](O)[C@@H](C)CC/C=C/C=C(\C)[C@@H]1C/C=C/C=C/[C@H](O)[C@H](C)[C@@H](O)[C@@H](CCC(C)=O)C(=O)N[C@@H](C(C)C)C(=O)N[C@@H](Cc3cccc(O)c3)C(=O)N3CCC[C@H](N3)C(=O)O1)[C@H](C)[C@H](O)[C@@H]2C [Sanglifehrin A]	1000 to 5000	do not have FK binding protein binding activity	prolonged graft survival	6.70 to 7.52	6.00 to 6.70	prolong graft survival	4.00 to 4.40	up to 50%			
CCC1CC(C)C2(NC1=O)OC(CC(O)C(C)CCC=CC=C(C)C1CC=CC=CC(O)C(C)C(O)C(CCC(C)=O)C(=O)NC(C(C)C)C(=O)NC(Cc3cccc(O)c3)C(=O)N3CCCC(N3)C(=O)O1)C(C)C=C2C (stereo not drawn) [Sanglifehrin B]	1000 to 5000	do not have FK binding protein binding activity	prolonged graft survival	6.70 to 7.52	6.00 to 6.70	prolong graft survival	4.00 to 4.40	up to 50%	do not inhibit calcineurin activity	7.00 to 8.00	up to 30%
CCC1CC(C)C2(NC1=O)OC(CC(O)C(C)CCC=CC=C(C)C1CC=CC=CC(O)C(C)C3OC(C)(OC)CCC3C(=O)NC(C(C)C)C(=O)NC(Cc3cccc(O)c3)C(=O)N3CCCC(N3)C(=O)O1)C(C)C(O)C2C (stereo not drawn) [Sanglifehrin C]	1000 to 5000	do not have FK binding protein binding activity	prolonged graft survival	6.70 to 7.52	6.00 to 6.70	prolong graft survival	4.00 to 4.40	up to 50%	do not inhibit calcineurin activity	7.00 to 8.00	up to 30%
